Patent publication US20220267380A1, “Glycopeptides Increasing Lipid Synthesis” (TFCHEM, priority 2019, published 2022)

System: normal human dermal fibroblasts (NHDF)
Assay: Gene expression in NHDF, full transcriptome analysis with Affymetrix U219 microarray
Type: cell-based
Conditions: NHDF
[1] = relative expression adjusted to detection limit (<20), 10 mg/ml, 24 h

Compound: CC(=O)N(CCCC[C@H](N)C(=O)O)CC(F)(F)[C@]1(O)O[C@H](CO)[C@H](O)[C@H](O)[C@H]1O [Compound 4]
- effect of treatment of NHDF on lipid synthesis (transcriptional): up regulation of lipids synthesis, including fatty acids, cholesterol or ceramides
- Fold change, CYP51A1///LRRD1 (10 mg/ml, 24 h, vs control): 2.38
- Fold change, DHCR7 (10 mg/ml, 24 h, vs control): 3.24
- Fold change, HMGCS1 (10 mg/ml, 24 h, vs control): 2.39
- Fold change, HSD17B7 (10 mg/ml, 24 h, vs control): 2.43
- Fold change, MVD (10 mg/ml, 24 h, vs control): 2.77
- Fold change, SC5D (10 mg/ml, 24 h, vs control): 2.06
- Fold change, SREBF1 (10 mg/ml, 24 h, vs control): 3.15
- Fold change, POR (10 mg/ml, 24 h, vs control, Affymetrix probe set 11716114_x_at): 3.68
- Fold change, G6PD (10 mg/ml, 24 h, vs control, Affymetrix probe set 11716292_a_at): 2.53
- Fold change, G6PD (10 mg/ml, 24 h, vs control, Affymetrix probe set 11716293_x_at): 2.48
- Fold change, INSIG1 (10 mg/ml, 24 h, vs control, Affymetrix probe set 11716338_a_at): 2.73
- Fold change, INSIG1 (10 mg/ml, 24 h, vs control, Affymetrix probe set 11716339_a_at): 3.73
- Fold change, NSMAF (10 mg/ml, 24 h, vs control, Affymetrix probe set 11717214_s_at): 2.01
- Fold change, LSS (10 mg/ml, 24 h, vs control, Affymetrix probe set 11717620_a_at): 2.14
- Fold change, ASAH1 (10 mg/ml, 24 h, vs control, Affymetrix probe set 11717722_s_at): 2.54
- Fold change, EBP (10 mg/ml, 24 h, vs control, Affymetrix probe set 11717859_a_at): 2.48
- Fold change, COL4A3BP (10 mg/ml, 24 h, vs control, Affymetrix probe set 11721537_a_at): 2.46
- Fold change, COL4A3BP (10 mg/ml, 24 h, vs control, Affymetrix probe set 11721538_a_at): 2.19
- Fold change, HTRA2 (10 mg/ml, 24 h, vs control, Affymetrix probe set 11726630_a_at): 2.06
- Fold change, LSS (10 mg/ml, 24 h, vs control, Affymetrix probe set 11731324_a_at): 3.13
- Fold change, CLN3 (10 mg/ml, 24 h, vs control, Affymetrix probe set 11731408_x_at): 3.73
- Fold change, NSMAF (10 mg/ml, 24 h, vs control, Affymetrix probe set 11740559_a_at): 2.34
- Fold change, NSMAF (10 mg/ml, 24 h, vs control, Affymetrix probe set 11740560_x_at): 2.19
- Fold change, ASAH1 (10 mg/ml, 24 h, vs control, Affymetrix probe set 11740580_at): 2.44
- Fold change, ASAH1 (10 mg/ml, 24 h, vs control, Affymetrix probe set 11740581_s_at): 2.41
- Fold change, ASAH1 (10 mg/ml, 24 h, vs control, Affymetrix probe set 11740582_a_at): 3.46
- Fold change, ASAH1 (10 mg/ml, 24 h, vs control, Affymetrix probe set 11743547_a_at): 3.97
- Fold change, TM7SF2 (10 mg/ml, 24 h, vs control, Affymetrix probe set 11744179_x_at): 2.10
- Fold change, CLN3 (10 mg/ml, 24 h, vs control, Affymetrix probe set 11744874_x_at): 3.98
- Fold change, POR (10 mg/ml, 24 h, vs control, Affymetrix probe set 11746973_x_at): 3.22
- Fold change, CLN3 (10 mg/ml, 24 h, vs control, Affymetrix probe set 11747203_x_at): 2.97
- Fold change, PPP2R1A (10 mg/ml, 24 h, vs control, Affymetrix probe set 11747739_a_at): 2.33
- Fold change, PPP2R1A (10 mg/ml, 24 h, vs control, Affymetrix probe set 11747740_x_at): 2.66
- Fold change, TM7SF2 (10 mg/ml, 24 h, vs control, Affymetrix probe set 11748279_s_at): 2.46
- Fold change, POR (10 mg/ml, 24 h, vs control, Affymetrix probe set 11748368_x_at): 3.37
- Fold change, CLN3 (10 mg/ml, 24 h, vs control, Affymetrix probe set 11748869_a_at): 3.24
- Fold change, CLN3 (10 mg/ml, 24 h, vs control, Affymetrix probe set 11748870_x_at): 3.33
- Fold change, EBP (10 mg/ml, 24 h, vs control, Affymetrix probe set 11749332_x_at): 2.22
- Fold change, COL4A3BP (10 mg/ml, 24 h, vs control, Affymetrix probe set 11749683_a_at): 2.62
- Fold change, DHCR24 (10 mg/ml, 24 h, vs control, Affymetrix probe set 11751337_a_at): 2.11
- Fold change, DHCR24 (10 mg/ml, 24 h, vs control, Affymetrix probe set 11751338_x_at): 2.31
- Fold change, PLA2G15 (10 mg/ml, 24 h, vs control, Affymetrix probe set 11751383_a_at): 2.52
- Fold change, G6PD (10 mg/ml, 24 h, vs control, Affymetrix probe set 11752486_a_at): 3.12
- Fold change, CLN3 (10 mg/ml, 24 h, vs control, Affymetrix probe set 11753053_x_at): 3.08
- Fold change, PLA2G15 (10 mg/ml, 24 h, vs control, Affymetrix probe set 11755396_a_at): 3.26
- Fold change, CLN3 (10 mg/ml, 24 h, vs control, Affymetrix probe set 11756016_x_at): 2.80
- Fold change, HTRA2 (10 mg/ml, 24 h, vs control, Affymetrix probe set 11756421_x_at): 2.15
- Fold change, POR (10 mg/ml, 24 h, vs control, Affymetrix probe set 11757517_x_at): 2.16
- Fold change, COL4A3BP (10 mg/ml, 24 h, vs control, Affymetrix probe set 11758133_s_at): 2.04
- REadj2, CYP51A1///LRRD1 [1]: 2314.08
- REadj2, DHCR7 [1]: 1204.72
- REadj2, HMGCS1 [1]: 1284.34
- REadj2, HSD17B7 [1]: 166.42
- REadj2, MVD [1]: 530.60
- REadj2, SC5D [1]: 537.03
- REadj2, SREBF1 [1]: 456.21
- REadj2, G6PD (relative expression adjusted to detection limit (<20), 10 mg/ml, 24 h, Affymetrix probe set 11716292_a_at): 438.70
- REadj2, G6PD (relative expression adjusted to detection limit (<20), 10 mg/ml, 24 h, Affymetrix probe set 11716293_x_at): 290.47
- REadj2, INSIG1 (relative expression adjusted to detection limit (<20), 10 mg/ml, 24 h, Affymetrix probe set 11716338_a_at): 1272.02
- REadj2, INSIG1 (relative expression adjusted to detection limit (<20), 10 mg/ml, 24 h, Affymetrix probe set 11716339_a_at): 1678.67
- REadj2, EBP (relative expression adjusted to detection limit (<20), 10 mg/ml, 24 h, Affymetrix probe set 11717859_a_at): 1008.77
- REadj2, HTRA2 (relative expression adjusted to detection limit (<20), 10 mg/ml, 24 h, Affymetrix probe set 11726630_a_at): 252.64
- REadj2, TM7SF2 (relative expression adjusted to detection limit (<20), 10 mg/ml, 24 h, Affymetrix probe set 11744179_x_at): 62.22
- REadj2, TM7SF2 (relative expression adjusted to detection limit (<20), 10 mg/ml, 24 h, Affymetrix probe set 11748279_s_at): 100.08
- REadj2, EBP (relative expression adjusted to detection limit (<20), 10 mg/ml, 24 h, Affymetrix probe set 11749332_x_at): 812.08
- REadj2, DHCR24 (relative expression adjusted to detection limit (<20), 10 mg/ml, 24 h, Affymetrix probe set 11751337_a_at): 176.26
- REadj2, DHCR24 (relative expression adjusted to detection limit (<20), 10 mg/ml, 24 h, Affymetrix probe set 11751338_x_at): 345.60
- REadj2, PLA2G15 (relative expression adjusted to detection limit (<20), 10 mg/ml, 24 h, Affymetrix probe set 11751383_a_at): 103.53
- REadj2, G6PD (relative expression adjusted to detection limit (<20), 10 mg/ml, 24 h, Affymetrix probe set 11752486_a_at): 220.41
- REadj2, PLA2G15 (relative expression adjusted to detection limit (<20), 10 mg/ml, 24 h, Affymetrix probe set 11755396_a_at): 177.48
- REadj2, HTRA2 (relative expression adjusted to detection limit (<20), 10 mg/ml, 24 h, Affymetrix probe set 11756421_x_at): 227.59
